Measured values published in US8703424B2, “Predicting human developmental toxicity of pharmaceuticals using human stem-like cells and metabolomics” (Stemina Biomarker Discovery, Inc., priority 2010, dated 2014).

Legend:
WA09 hES cells [1] = experiment: Pathway enrichment analysis of annotated mass features on KEGG human metabolic networks (Example 8); type: cell-based; conditions: across dose levels; positive and negative features
Procedure: Pathways enrichment analysis was performed by mapping annotated mass features for each experimental compound to human metabolic networks using KEGG compound ids. Hypergeometric p-values and false discovery rates (FDR) were used to assign a quantitative measure of statistical significance to each network. Features derived from ESI negative and positive mode for each experimental compound were pooled for this analysis. False positive results can be generated by isobaric compounds that generate multiple “hits” in a network from the same mass, so unique masses instead of unique compound ids were used for these calculations. The relevant parameters used to calculate hypergeometric p-values for each network were: the number of unique mass “hits”, the number of unique masses in the network, and the total number of unique masses in all of the human networks in the KEGG database. For each experimental compound, the p-values for the derived networks were converted to FDR using the Benjamini and Hochberg (1995) correction.
Feature Selection was performed on a per compound basis using a one-way anova evaluating the difference of dose level means and on a per dose basis using Welch T-tests and PLS-DA VIP score. […] If a feature was selected as interesting in a drug or dose level comparison it was then evaluated experiment wide for fold changes. Following feature selection only significant features putatively annotated as mammalian in origin and present on KEGG network diagrams were further evaluated. […] These selection criteria focused the analysis on biochemical pathways.
Following selection, features were passed through a quality control evaluation of extracted ion chromatograms (EICs) to confirm the validity of individual mass features. Features passing quality control were further evaluated to confirm estimated fold changes. After removing poor quality and duplicate features, the remaining ESI positive and ESI negative mode features were combined into a unified dataset for evaluation of pathway enrichment by treatment.

[2] = test system: WA09 human embryonic stem (hES) cells; experiment: PLS-DA prediction of teratogenicity from secretome of treated hES cells (Example 9)
Description: These included 11 known teratogens and 11 known non-teratogens. The current model is based on the mean fold change (treatment versus its associated intra-experimental control) of 15 metabolites common among the secretome of hES cells treated with pharmaceutical agents and unknown chemical compounds.

WA09 hES cells [3] = experiment: Metabolomics of hES cells dosed in 96-well plates at three dose levels (Example 8); type: cell-based, human
Procedure: For metabolomic analysis, hES cells were dosed at the three concentrations for each chemical compound based on the cell viability data. Media controls (no cells), dosed media controls (no cells with dosed media), and controls (cells with undosed media) were also included in the experimental design (FIG. 1). Spent media was collected following a three day dosing period. The collected media was immediately quenched in acetonitrile then stored at −80° C. until later analysis.
In both the viability and metabolomics steps, 96-well plates were seeded with 250,000 cells/well of WA09 hES cells. These cells were “dosed” for three days. Each day for three days, the spent media was removed and replaced with […] media containing the designated compound. Each compound stock solution was made in DMSO and each final solution used to dose hES cells contained 0.1% DMSO. […]
Samples were analyzed in both ESI positive and ESI negative modes on an Agilent QTOF instrument, operated in high resolution, extended dynamic range mode. […]
Peak picking and feature creation were performed using the open source software library XCMS. Mass features (peaks) were detected using the centwave algorithm. […]
This filter selects against spurious low abundance features at the level of detection that are not reproducibly measured, and features that may not have peak shapes amenable to reproducible detection and/or integration. […]

[4] = DevTox pharmaceutical, high dose (H = 10x circulating dose)
[5] = DevTox pharmaceutical, low dose (L = 0.1x circulating dose)
[6] = EPA compounds, high dose level (H)
[7] = EPA compounds, low dose level (L)
[8] = EPA compounds, medium dose level (M)

Compound: CN(C)CCOC(C)(c1ccccc1)c1ccccn1 (stereo not drawn) [Doxylamine]
- Number of unique KEGG ID annotations: Alanine, aspartate and glutamate metabolism (WA09 hES cells [1]): 1
- Number of unique KEGG ID annotations: Arginine and proline metabolism (WA09 hES cells [1]): 1
- Number of unique KEGG ID annotations: Ascorbate and aldarate metabolism (WA09 hES cells [1]): 2
- Number of unique KEGG ID annotations: Citrate cycle (TCA cycle) (WA09 hES cells [1]): 1
- Number of unique KEGG ID annotations: Cysteine and methionine metabolism (WA09 hES cells [1]): 2
- Number of unique KEGG ID annotations: Galactose metabolism (WA09 hES cells [1]): 2
- Number of unique KEGG ID annotations: Glutathione metabolism (WA09 hES cells [1]): 1
- Number of unique KEGG ID annotations: Glyoxylate and dicarboxylate metabolism (WA09 hES cells [1]): 3
- Number of unique KEGG ID annotations: Nicotinate and nicotinamide metabolism (WA09 hES cells [1]): 5
- Number of unique KEGG ID annotations: Pantothenate and CoA biosynthesis (WA09 hES cells [1]): 3
- Number of unique KEGG ID annotations: Pentose and glucuronate interconversions (WA09 hES cells [1]): 3
- Number of unique KEGG ID annotations: Pentose phosphate pathway (WA09 hES cells [1]): 1
- Number of unique KEGG ID annotations: Propanoate metabolism (WA09 hES cells [1]): 3
- Number of unique KEGG ID annotations: Pyruvate metabolism (WA09 hES cells [1]): 6
- Number of unique KEGG ID annotations: Vitamin B6 metabolism (WA09 hES cells [1]): 3
- PLS-DA classification ([2]; 0.38 μM): not classified as a teratogen
- % Non (PLS-DA class probability non-teratogen) [2, 4]: 0.38
- % Ter (PLS-DA class probability teratogen) [2, 4]: 0.62
- Confidence (difference between class probabilities) [2, 4]: 0.24
- Prediction [2, 4]: Ter
- % Non (PLS-DA class probability non-teratogen) [2, 5]: 0.58
- % Ter (PLS-DA class probability teratogen) [2, 5]: 0.42
- Confidence (difference between class probabilities) [2, 5]: 0.16
- Prediction [2, 5]: Non
- % Non (PLS-DA generated class probability) [2, 6]: 0.45
- % Ter (PLS-DA generated class probability) [2, 6]: 0.55
- Prediction [2, 6]: Ter
- Confidence (difference between class probabilities) ([2]; EPA compounds, high dose level (H), values less than 0.1 inconclusive): 0.1
- % Non (PLS-DA generated class probability) [2, 7]: 0.41
- % Ter (PLS-DA generated class probability) [2, 7]: 0.59
- Prediction [2, 7]: Ter
- Confidence (difference between class probabilities) ([2]; EPA compounds, low dose level (L), values less than 0.1 inconclusive): 0.18
- % Non (PLS-DA generated class probability) [2, 8]: 0.44
- % Ter (PLS-DA generated class probability) [2, 8]: 0.56
- Prediction [2, 8]: Ter
- Confidence (difference between class probabilities) ([2]; EPA compounds, medium dose level (M), values less than 0.1 inconclusive): 0.12
- Teratogenicity Classification ([2]; [Doxylamine] 0.038 μm, devTox low): Non
- Teratogenicity Classification ([2]; [Doxylamine] 0.38 μm, devTox medium): Non
- Teratogenicity Classification ([2]; [Doxylamine] 1 μm, EPA low): Ter
- Teratogenicity Classification ([2]; [Doxylamine] 3.8 μm, devTox high): Ter
- Teratogenicity Classification ([2]; [Doxylamine] 10 μm, EPA medium): Ter
- Teratogenicity Classification ([2]; [Doxylamine] 100 μm, EPA high): Ter
- PLS-DA classification, these studies (EPA set) ([2]; all three concentrations (low, medium, and high)): teratogen
- PLS-DA classification, developmental toxicity assay (Table 11) ([2]; high concentration): teratogen
- PLS-DA classification, developmental toxicity assay (Table 11) ([2]; low and medium dose): non-teratogen
- PLS-DA classification of EPA-provided chemical agents ([2]; overall conclusion): potential teratogens
- Dimethylarginine (DMA) change (WA09 hES cells [3]; at least two dose levels): increased secretion
- Malic acid change (WA09 hES cells [3]; high dose levels): extreme fold changes
